Test results as given in patent publication US8101761B2, “(E)-N-{3-[1-(8-fluoro-11H-10-OXA-1-AZA-dibenzo [A,D] cyclohepten-5ylidene)-propyl]-phenyl}-methanesulfonamide as glucocorticoid receptor modulator for the treatment of rheumatoid arthritis” (Eli Lilly and Company, priority 2008, dated 2012).
pIC50: −log10 of the molar value.

How the values were obtained:
[1] = tested on: TNF-α production in PMA-differentiated U937 cells; assay: GR-mediated transrepression: LPS-stimulated TNF-α production in PMA-differentiated U937 cells; assay type: cell-based, human
Procedure: 2. LPS-Stimulated TNF-α Production in PMA-Differentiated U937 Cells:
Human U937 pre-monocytic cells, obtained from ATCC, are grown in complete RPMI 1640 medium containing 10% FBS. To allow monocytes to differentiate to adherent macrophages, U937 cells are washed in calcium, magnesium free and resuspended in fresh RPMI medium containing 20 nM phorbol 12-myristate-13-acetate (PMA) overnight. After differentiation, test compounds are added to the cells in the 96-well plate at various concentrations ranging from about 4.65 pM to 4.64 μM. 1-hour post treatment with test compound, LPS is added at final concentration of 100 ng/ml and the reaction mixture is incubated overnight. 25 μl cell-free supernatant is transferred from each well to another 96-well plate and TNF-α production is measured using an ELISA kit with TNF-α being quantified by reading absorbance at 450 nm.

[2] = tested on: serum osteocalcin in male Swiss-Webster mice; assay: Serum osteocalcin assay; assay type: in vivo, mouse; conditions: oral, seven days, 3 mg/Kg/day Compound (I) vs 10 mg/Kg/day prednisolone, serum 24 h after last dose
Description: Bone loss/osteoporosis and the resulting increased risk of fracture is a common and significant adverse effect that results from glucocorticoid therapy. Glucocorticoid induced osteoporosis is believed to result, at least in part, from an inhibition of bone formation. The measurement of serum osteocalcin, a biological marker of bone synthesis, is a recognized tool for assessing the adverse effects of glucocorticoid therapy on bone.
To assess the effects of Compound (I) on bone formation, Compound (I) is formulated in a vehicle comprising 5% carboxymethyl cellulose and 0.25% Tween 80 and administered orally via gavage to sixteen week old male Swiss-Webster mice (Harlan Industries, Indianapolis) for seven days. For comparison, prednisolone is administered orally in the same vehicle. Serum is collected 24 hours after the last dose and osteocalcin levels are determined using a competitive radioimmunoassay modified to a 96 well format. […] The filters are punched and the radioactivity quantitated on a gamma counter. Radioactivity detected on the filters from test samples is inversely proportional to serum osteocalcin concentration. […]

CC/C(=C1\c2ccc(F)cc2OCc2ncccc21)c1cccc(NS(C)(=O)=O)c1 [Compound (I), (E)-N-{3-[1-(8-Fluoro-11H-10-oxa-1-aza-dibenzo[a,d]cyclohepten-5-ylidene)-propyl]-phenyl}-methanesulfonamide]
pIC50 ([1]; Homo sapiens, U-937, LPS 100 ng/ml, average of n=4, read-out: IC50, inhibition of TNF-α expression): ~7.68
maximal inhibition of the endogenous expression of TNF-α ([1]; LPS 100 ng/ml, n=4): ≥ 90%
reduction in serum osteocalcin levels [2]: less reduction in serum osteocalcin levels than prednisolone
